These results are taken from patent publication US20260263506A1, “CORNEAL DISORDER TREATMENT AGENT” (M'S SCIENCE CORPORATION, priority 2022, published 2026).

In test [1] the test system is HCE-T (immortalized human corneal epithelial) cells. The test can be described thus: HCE-T cell migration assay, Calcein-AM fluorescence of cells migrated into the stopper zone. As to conditions: for Relative fluorescence intensity (%): no-addition control = 100%; for Effect on migration of human corneal epithelial cells (in words): summary statement from both analysis methods. It is filed as cell-based. The method, then:
(§1) HCE-T (immortalized human corneal epithelial) cells [isolated and established from human corneal epithelia; obtained from RIKEN Cell Bank] were cultured in DMEM/F12 medium supplemented with 5% fetal bovine serum in a CO2 incubator at 37° C.
(§2) HCE-T cells grown to 60%-80% confluency in a T75 flask were detached with trypsin-EDTA and collected. The collected cells were suspended in fresh DMEM/F12 medium supplemented with fetal bovine serum.
(§3) From this cell suspension, 60,000 cells per well were seeded in a 96-well multiwell-plate, in which each well was fitted with a cell seeding stopper.
(§4) After the plate was incubated overnight at 37° C. in a CO 2 incubator, the cell stoppers were removed, and the cells were washed twice with a serum-free medium. Then, the medium was replaced by a serum-free medium supplemented with the test substance or a control serum-free medium devoid of the test substance, and the cells were cultured for 28 hours.
(§5) The serum-free medium with the test substance used was a medium containing fondaparinux sodium [obtained from Selleck] at a concentration of 0.1% (w/v) or 0.3% (w/v) or a medium containing 0.5% (w/v) sodium chondroitin sulfate (obtained from Tokyo Chemical Industry; average molecular weight, ~30,000).
(§6) The cultured cells were stained with Calcein-AM (obtained from nacalai tesque), and the fluorescence emitted from HCE-T cells that migrated to the zone where the stopper was placed was measured. After the fluorescence intensity was measured, fluorescence microscopic images were acquired and analyzed using a BZ-X analyzer to measure cell migration areas.
A relative fluorescence intensity value is a fluorescence intensity measurement for each test substance group expressed in percentage in reference to the fluorescence intensity of the no-addition group (control) as 100%, indicating the relative level of cell migration compared to the control.
(§7) As in Experiment 1, HCE-T (immortalized human corneal epithelial) cells were used to investigate the effects of test substances on the migration of HCE-T cells. The test substances used were fondaparinux sodium, high-molecular-weight sodium hyaluronate (average molecular weight 887,000), sodium heparan sulfate (average molecular weight 23,000), and low molecular weight heparin (average molecular weight 5,400). Among these test substances, fondaparinux sodium was obtained from Selleck as described above, and all other glycosaminoglycans were obtained from Iwai Chemicals Company. The concentration of each test substance was 0.3% (w/v).

The test system is the same in test [2]. The test can be described thus: HCE-T cell migration assay, cell migration area from fluorescence microscopic images (BZ-X analyzer). It counts as cell-based. As to conditions: for Relative cell migration area (%): no-addition control = 100%. The protocol:
as §1, §2, §3, §4, §5, §6
The cell migration areas were calculated (measured) through analysis of images acquired with a fluorescence microscope and were used to calculate areas relative to the no-addition control group (relative migration areas).
A relative migration area value is a relative cell migration area for each test substance group expressed in percentage in reference to the cell migration area of the no-addition control group as 100%.
as §7

[3] abbreviates: Experiment 1, 0.5% (w/v), serum-free medium, 28 hours, mean and standard error of 3 measurements.
The mark [4] stands for this setting: Experiment 2, 0.3% (w/v), as in Experiment 1.
The mark [5] stands for this setting: Experiment 2, 0.3% (w/v), mean and standard error of 4 measurements.
Where [6] appears, read: Experiment 1, 0.1% (w/v), serum-free medium, 28 hours, mean and standard error of 3 measurements.
Setting [7] is: Experiment 1, 0.3% (w/v), serum-free medium, 28 hours, mean and standard error of 3 measurements.

Marks after values point to notes of the source that are not given here.

Consider Sodium chondroitin sulfate, for which, in test [1] (Experiment 1, 0.5% (w/v), 28 hours, n=3), the “Relative fluorescence intensity (%)” value is given as 89.20 ± 23.97%. In addition, in test [1] (setting [3]), the Fluorescence intensity was 0.112 ± 0.030. Besides, the “Relative cell migration area (%)” value in test [2] (Experiment 1, 0.5% (w/v), n=3) stood at 103.9 ± 18.0%. Further, the “Cell migration area (10^4 μm^2)” value in test [2] (setting [3]) was 66.1 ± 1.1 10^4 μm^2.

For the molecule “High-molecular-weight sodium hyaluronate”, the Fluorescence intensity in test [1] (setting [4]) is given as 0.176 ± 0.028. In addition, the “Relative fluorescence intensity (%)” value in test [1] (Experiment 2, 0.3% (w/v)) is 143.67 ± 22.72%. The “Cell migration area (10^4 μm^2)” value in test [2] (setting [5]) is 50.9 ± 17.4 10^4 μm^2. In addition, in test [2] (Experiment 2, 0.3% (w/v), n=4), the “Relative cell migration area (%)” value came out at 130.9 ± 4.5%.

Low molecular weight heparin: the Fluorescence intensity in test [1] (setting [4]) is on record as 0.359 ± 0.083. The “Relative fluorescence intensity (%)” value in test [1] (Experiment 2, 0.3% (w/v)) was 293.94 ± 68.25%. Further, the “Effect on migration of human corneal epithelial cells (in words)” value in test [1] was “strong stimulatory effect”. Further, the “Cell migration area (10^4 μm^2)” value in test [2] (setting [5]) is 78.4 ± 12.3* 10^4 μm^2. The “Relative cell migration area (%)” value in test [2] (Experiment 2, 0.3% (w/v), n=4) is 201.6 ± 31.6 %.

For `CO[C@H]1OC(COS(=O)(=O)[O-])[C@@H](O[C@@H]2OC(C(=O)[O-])[C@@H](O[C@H]3OC(COS(=O)(=O)[O-])[C@@H](O[C@@H]4OC(C(=O)[O-])[C@@H](O[C@H]5OC(COS(=O)(=O)[O-])[C@@H](O)C(O)C5NS(=O)(=O)[O-])C(O)C4O)C(OS(=O)(=O)[O-])C3NS(=O)(=O)[O-])C(O)C2OS(=O)(=O)[O-])C(O)C1NS(=O)(=O)[O-].[Na+].[Na+].[Na+].[Na+].[Na+].[Na+].[Na+].[Na+].[Na+].[Na+]` (stereo partly drawn) [Fondaparinux sodium, methyl O-(2-deoxy-6-O-sulfo-2-sulfoamino-α-D-glucopyranosyl)-(1→4)-O-(β-D-glucopyranosyluronic acid)-(1→4)-O-(2-deoxy-3,6-di-O-sulfo-2-sulfoamino-α-D-glucopyranosyl)-(1→4)-O-(2-O-sulfo-α-L-idopyranosyluronic acid)-(1→4)-2-deoxy-6-O-sulfo-2-sulfoamino-α-D-glucopyranoside sodium salt], the “Relative fluorescence intensity (%)” value in test [1] (Experiment 1, 0.1% (w/v), 28 hours, n=3) is on record as 145.41 ± 10.19%; in test [1] (Experiment 1, 0.3% (w/v), 28 hours, n=3), 170.1 ± 2.84 %; in test [1] (Experiment 2, 0.3% (w/v)) it was 237.36 ± 22.53 %. In addition, the Fluorescence intensity in test [1] (setting [6]) is given as 0.183 ± 0.013; in test [1] (setting [7]), 0.215 ± 0.004; in test [1] (setting [4]) it was 0.290 ± 0.028. Also, the “Effect on migration of human corneal epithelial cells (in words)” value in test [1] (listed as fondaparinux sodium, sodium salt) is “promoted migration and stretching of human corneal epithelial cells”; in test [1] (listed as fondaparinux, sodium salt), “strong stimulatory effect”. Besides, the “Relative cell migration area (%)” value in test [2] (Experiment 1, 0.1% (w/v), n=3) was 160.5 ± 6.6%; in test [2] (Experiment 1, 0.3% (w/v), n=3), 168.4 ± 5.1 %; in test [2] (Experiment 2, 0.3% (w/v), n=4), 169.4 ± 16.4%. Moreover, the “Cell migration area (10^4 μm^2)” value in test [2] (setting [6]) is recorded as 102.1 ± 4.2 10^4 μm^2; in test [2] (setting [7]) it was 107.1 ± 3.2* 10^4 μm^2; in test [2] (setting [5]), 65.9 ± 6.4 10^4 μm^2.
